Data reported in publication doi:10.1101/871186v1 (bioRxiv, 2019).

Tests used:
[1] = system: in vitro bovine BBB model (primary bovine brain capillary endothelial cells supported by primary rat glial cells); assay: In vitro BBB model transcytosis assay of MTf fragments and peptides; format: in vitro ADME
[2] = system: neurons (NeuN), astrocytes (GFAP), microglia (TMEM), lysosomes (LAMP1), early endosomes (EEA1); format: in vivo; settings: mouse brain sections after IV Cy5-MTfp, 3D confocal
[3] = Tissue distribution of intact MTfp by LCMS; format: in vivo, mouse (CD1)

DSSHAFTLDELR [MTfp]
Abluminal vs. Total ([1]; T = 120, abluminal compared to initial concentration): 1.90% | Abluminal vs. Luminal ([1]; T = 120, measure of transcytosis efficiency): 2.41% | MTFp found in the early endosomes ([2]; EEA1 marker): approximately 20% | MTFp found in the lysosomes ([2]; LAMP1 marker): 40% | initial rate of transport, kidney ([3]; from 30-minute concentration): 9.9 nM/min | initial rate of transport, liver ([3]; from 30-minute concentration): 7.3 nM/min | initial rate of transport into the brain ([3]; slope of time vs concentration, 0 and 30-minute time points, protocol of Bickel): ~2 nM/min
